From publication PMC9658812, “New Pyrimidine-5-Carbonitriles as COX-2 Inhibitors: Design, Synthesis, Anticancer Screening, Molecular Docking, and In Silico ADME Profile Studies” (Molecules, 2022)
Read-outs that look alike come from different tables or passages of the source.

What was measured:
[1] = test system: MCF7 cells (breast carcinoma); assay: MTT cytotoxicity assay, MCF7; conditions: for IC50: Homo sapiens, MCF7, 24 h, read-out: Cytotoxicity IC50 MCF7
Procedure: (§1) Breast carcinoma (MCF-7), renal cell carcinoma (A498), lung cancer (A549), and liver carcinoma (HepG2) cell lines, in addition to non-tumorigenic WI-38 cell lines, were collected from the American Type Culture Collection. The cells were grown in DMEM (Invitrogen/Life Technologies) containing 1% penicillin-streptomycin, 10 µg/mL of insulin (Sigma), and 10% FBS (Hyclone).
(§2) To check the possible cellular toxicity, synthesized compounds were subjected to the MTT [3-(4,5-dimethylthiazol-2-yl)-2,5-diphenyltetrazolium bromide] assay against the MCF7, A549, A498, and HepG2 cell lines. […] Later, 2.0–3.0 mL of Trypsin EDTA solution was added into the flask containing the cell layers for 5–15 min to disperse the cell layer, which was observed through an inverted microscope. By gently pipetting, aspirated cells were added into a 6.0–8.0 mL growth medium. […] An amount of 20 μL of a 5-mg/mL MTT solution was applied after a 24-h drug-treatment period, and it was incubated for 4 h. To dissolve the produced purple formazan, each well received 100 μL of dimethyl sulfoxide (DMSO).

[2] = test system: A498 cells (renal carcinoma); assay: MTT cytotoxicity assay, A498; conditions: for IC50: Homo sapiens, A498, 24 h, read-out: Cytotoxicity IC50 A498
Procedure: as §1, §2

[3] = test system: WI-38 cells (normal cell derived from lung tissue); assay: Cytotoxicity on non-tumorigenic WI-38 cell line; conditions: Homo sapiens, WI-38, read-out: WI-38 IC50
Procedure: as §1, §2

[4] = test system: HepG2 cells (liver carcinoma); assay: MTT cytotoxicity assay, HepG2; conditions: Homo sapiens, HepG2, 24 h, read-out: Cytotoxicity IC50 HepG2
Procedure: as §1, §2

[5] = test system: A549 cells (non-small-cell lung cancer); assay: MTT cytotoxicity assay, A549; conditions: Homo sapiens, A549, 24 h, read-out: Cytotoxicity IC50 A549
Procedure: as §1, §2

human COX-2 = biological target: T1, human COX-2 (Homo sapiens, UniProt P35354); assay: COX-2 inhibition assay (fluorometric inhibitor screening kit); type: biochemical; conditions: for inhibition at 10 µM / inhibition at 1 µM / inhibition at 0.1 µM / inhibition at 0.01 µM / inhibition at 0.001 µM: read-out: COX-2 Inhibition (%); for IC50: human COX-2 assay kit, three experiments
T1 construct: purchased Biovision, Zurich, Switzerland
T1 sequence (P35354 18-604): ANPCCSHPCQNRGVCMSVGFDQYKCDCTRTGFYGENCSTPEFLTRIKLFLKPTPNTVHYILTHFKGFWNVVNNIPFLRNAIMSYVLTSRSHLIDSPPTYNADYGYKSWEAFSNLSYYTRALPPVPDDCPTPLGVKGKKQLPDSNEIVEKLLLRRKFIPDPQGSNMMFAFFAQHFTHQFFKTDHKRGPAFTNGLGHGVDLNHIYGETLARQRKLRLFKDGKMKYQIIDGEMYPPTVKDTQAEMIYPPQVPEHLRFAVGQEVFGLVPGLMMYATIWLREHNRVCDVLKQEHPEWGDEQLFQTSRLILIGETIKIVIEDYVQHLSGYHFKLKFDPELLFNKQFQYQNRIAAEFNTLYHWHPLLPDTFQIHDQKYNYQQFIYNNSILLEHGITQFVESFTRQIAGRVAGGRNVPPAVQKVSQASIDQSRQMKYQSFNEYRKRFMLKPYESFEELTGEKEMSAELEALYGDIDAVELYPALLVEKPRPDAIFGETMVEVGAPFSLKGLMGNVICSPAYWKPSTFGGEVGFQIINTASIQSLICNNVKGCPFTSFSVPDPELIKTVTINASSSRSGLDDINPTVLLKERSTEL
Source text: Fluorometric inhibitor screening kits (Biovision, Zurich, Switzerland) were utilized for the COX-2 enzyme inhibition test, as described before.

COX-2 = COX-2 inhibitor potency; cited from earlier work
HeLa cell lines = test system: HeLa cell lines; set-up: method as in doi:10.1007/s00044-012-0051-9; conditions: anticancer activity in vitro; cited from earlier work
[6] = 10^−5 M, mean of three experiments ± SD
[7] = 10^−6 M, mean of three experiments ± SD
[8] = 10^−7 M, mean of three experiments ± SD
[9] = 10^−8 M, mean of three experiments ± SD
[10] = 10^−9 M, mean of three experiments ± SD

| Compound | inhibition at 10 µM (human COX-2; [6]) [%] | inhibition at 1 µM (human COX-2; [7]) [%] | inhibition at 0.1 µM (human COX-2; [8]) [%] | inhibition at 0.01 µM (human COX-2; [9]) [%] | inhibition at 0.001 µM (human COX-2; [10]) [%] | IC50 (human COX-2) [nM] | melting point [°C] | further results |
| --- | --- | --- | --- | --- | --- | --- | --- | --- |
| COc1cccc2c1C(=O)c1c(O)c3c(c(O)c1C2=O)C[C@@](O)(C(=O)CO)C[C@@H]3O[C@H]1C[C@H](N)[C@H](O)[C@H](C)O1 [Doxorubicin, doxorubicin, reference compound] |  |  |  |  |  |  |  | IC50 [1]: 9 ± 0.26 nM; IC50 [2]: 7 ± 0.23 nM; IC50 [3]: 8830 ± 90 nM; IC50 [4]: 25 ± 0.55 nM; IC50 [5]: 13 ± 0.42 nM |
| CS(=O)(=O)Nc1ccc([N+](=O)[O-])cc1Oc1ccccc1 [Nimesulide, reference compound] |  |  |  |  |  |  |  | inhibition at 0.001 µM (human COX-2): 17.1 ± 0.38%; inhibition at 0.01 µM (human COX-2): 24 ± 0.42%; inhibition at 0.1 µM (human COX-2): 29.4 ± 0.55%; inhibition at 1 µM (human COX-2): 36.4 ± 0.84%; inhibition at 10 µM (human COX-2): 69.5 ± 1.02% |
| NS(=O)(=O)c1ccc(-c2nc(Cl)cc(NCc3cccs3)n2)cc1 [VII] |  |  |  |  |  |  |  | IC50 (COX-2): 12.7 nM |
| COc1ccc(-c2nc(Nc3ccc(S(N)(=O)=O)cc3)n3c(C)nnc3c2C#N)cc1OC [II] |  |  |  |  |  |  |  | IC50 (HeLa cell lines): 39 nM |

The next lines start with results.

| inhibition at 10 µM (human COX-2; [6]) [%] | inhibition at 1 µM (human COX-2; [7]) [%] | inhibition at 0.1 µM (human COX-2; [8]) [%] | inhibition at 0.01 µM (human COX-2; [9]) [%] | inhibition at 0.001 µM (human COX-2; [10]) [%] | IC50 (human COX-2) [nM] | melting point [°C] | Compound | further results |
| --- | --- | --- | --- | --- | --- | --- | --- | --- |
| 74.3 ± 1.03 | 57.1 ± 0.92 | 37.6 ± 0.6 | 32.5 ± 0.53 | 21 ± 0.4 | 290 ± 10 | > 300 | COc1ccc(-c2nc(NCc3nc4ccccc4s3)nc(OC)c2C#N)cc1 [Compound 3c, 2-(Benzo[d]thiazol-2-ylmethylamino)-4-methoxy-6-(4-methoxyphenyl)pyrimidine-5-carbonitrile] |  |
| 42.1 ± 0.93 | 28.7 ± 0.51 | 20.3 ± 0.52 | 73.2 ± 1.21 | 64.3 ± 1.05 | 260 ± 10 | 276 to 278 | COc1ccc(-c2nc(NS(=O)(=O)c3ccc(C(C)(C)C)cc3)nc(OC)c2C#N)cc1 [Compound 5c, 4-Tert-Butyl-N-(5-cyano-4-methoxy-6-(4-methoxyphenyl)pyrimidin-2-yl)benzene sulfonamide] |  |
| 40.3 ± 0.62 | 33.3 ± 0.77 | 22.4 ± 0.59 | 77.01 ± 0.03 | 61.3 ± 0.96 | 200 ± 10 | > 300 | COc1ccc(-c2nc(NCc3nc4ccccc4o3)nc(OC)c2C#N)cc1 [Compound 3b, 2-(Benzo[d]oxazol-2-Ylmethylamino)-4-methoxy-6-(4-methoxyphenyl)pyrimidine-5-carbonitrile] | IC50 [1]: 3 ± 0.1 nM; fold more cytotoxic than doxorubicin, MCF7 ([1]; versus doxorubicin): three; IC50 [2]: 4 ± 0.15 nM; fold more cytotoxic than doxorubicin, A498 ([2]; versus doxorubicin): two-fold; IC50 [3]: 94700 ± 2500 nM; fold more potent than Nimesulide (COX-2 IC50) (human COX-2; versus Nimesulide): approximately 4.7 fold; IC50 [4]: 22 ± 0.62 nM; IC50 [5]: 19 ± 0.52 nM |
